Reference: ChEMBL document CHEMBL1201862, “PubChem BioAssay data set” (2004)
Calls of active or inactive are those of the source.

Assays:
[1] = molecular target: Intestinal-type alkaline phosphatase (Homo sapiens, UniProt P09923); experiment: human intestinal alkaline phosphatase activators, dose response, biochemical, luminescence, uHTS hits (AID 463120); assay type: functional
[2] = molecular target: T1, Alkaline phosphatase, tissue-nonspecific isozyme (Homo sapiens, UniProt P05186); experiment: potency against alkaline phosphatase TNAP – biochemical, luminescent, dose response, SAR follow-up (AID 1056)
T1 sequence (P05186 whole entry): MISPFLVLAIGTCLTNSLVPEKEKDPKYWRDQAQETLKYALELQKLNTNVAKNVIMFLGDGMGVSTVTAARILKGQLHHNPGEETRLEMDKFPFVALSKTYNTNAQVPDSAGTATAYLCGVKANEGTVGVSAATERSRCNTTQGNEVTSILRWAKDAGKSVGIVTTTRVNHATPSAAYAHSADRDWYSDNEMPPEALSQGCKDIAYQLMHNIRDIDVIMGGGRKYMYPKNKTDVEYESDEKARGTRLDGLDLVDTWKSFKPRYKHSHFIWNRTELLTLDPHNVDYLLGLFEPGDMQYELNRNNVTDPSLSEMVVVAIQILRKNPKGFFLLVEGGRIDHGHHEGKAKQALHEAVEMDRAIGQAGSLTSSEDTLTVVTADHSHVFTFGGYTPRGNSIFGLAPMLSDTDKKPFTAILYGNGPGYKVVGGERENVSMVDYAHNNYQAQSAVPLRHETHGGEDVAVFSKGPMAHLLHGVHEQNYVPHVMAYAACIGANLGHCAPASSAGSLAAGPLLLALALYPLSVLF

[3] = molecular target: Glyceraldehyde-3-phosphate dehydrogenase (Homo sapiens, UniProt P04406)
Glyceraldehyde-3-phosphate dehydrogenase, sequence (P04406 whole entry): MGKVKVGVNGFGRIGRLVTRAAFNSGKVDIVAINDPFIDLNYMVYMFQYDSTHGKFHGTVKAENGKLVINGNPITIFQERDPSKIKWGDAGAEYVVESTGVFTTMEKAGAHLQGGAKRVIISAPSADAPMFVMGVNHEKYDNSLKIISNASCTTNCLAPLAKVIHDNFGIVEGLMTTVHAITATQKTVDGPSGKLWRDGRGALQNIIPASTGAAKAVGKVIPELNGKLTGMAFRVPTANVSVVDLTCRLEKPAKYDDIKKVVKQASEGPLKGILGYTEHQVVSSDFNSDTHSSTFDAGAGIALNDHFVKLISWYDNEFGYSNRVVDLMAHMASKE

[4] = cells; assay type: functional, cell-based
[5] = cells; assay type: functional, cell-based; remark: listed apart in the source
[6] = molecular target: T2, Short transient receptor potential channel 4 (Mus musculus, UniProt Q9QUQ5); experiment: calcium entry via TRPC4 opening agents – cell-based, HEK293 TRPC4/mu-opioid, Fluo-4 calcium, dose response (AID 434937); assay type: functional
T2 sequence (Q9QUQ5 whole entry): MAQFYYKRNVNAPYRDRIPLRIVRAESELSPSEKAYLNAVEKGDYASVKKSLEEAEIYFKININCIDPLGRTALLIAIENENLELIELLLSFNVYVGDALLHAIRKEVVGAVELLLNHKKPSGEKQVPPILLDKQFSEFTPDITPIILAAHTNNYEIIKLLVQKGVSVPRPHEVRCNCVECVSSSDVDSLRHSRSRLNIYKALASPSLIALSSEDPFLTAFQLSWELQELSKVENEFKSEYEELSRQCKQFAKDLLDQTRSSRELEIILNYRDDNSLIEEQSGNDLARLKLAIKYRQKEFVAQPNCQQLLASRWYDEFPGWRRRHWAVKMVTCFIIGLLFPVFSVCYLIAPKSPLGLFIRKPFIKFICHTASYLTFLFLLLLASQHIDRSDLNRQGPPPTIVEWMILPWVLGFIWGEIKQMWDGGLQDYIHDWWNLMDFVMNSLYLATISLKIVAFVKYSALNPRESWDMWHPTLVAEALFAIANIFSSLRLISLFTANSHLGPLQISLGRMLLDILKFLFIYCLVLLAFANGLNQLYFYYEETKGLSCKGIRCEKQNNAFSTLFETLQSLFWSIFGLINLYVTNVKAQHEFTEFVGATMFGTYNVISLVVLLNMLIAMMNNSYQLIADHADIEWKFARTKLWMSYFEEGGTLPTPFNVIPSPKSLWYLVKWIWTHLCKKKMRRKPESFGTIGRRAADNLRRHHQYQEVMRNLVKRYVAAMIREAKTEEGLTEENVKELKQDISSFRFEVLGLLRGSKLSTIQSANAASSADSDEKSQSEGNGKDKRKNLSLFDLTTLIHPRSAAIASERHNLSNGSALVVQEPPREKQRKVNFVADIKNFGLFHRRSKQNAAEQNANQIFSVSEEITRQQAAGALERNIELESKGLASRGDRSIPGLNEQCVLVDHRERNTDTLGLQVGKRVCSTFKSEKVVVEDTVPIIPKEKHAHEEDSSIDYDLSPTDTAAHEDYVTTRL

[7] = molecular target: T3, Lysine-specific demethylase 4C (Homo sapiens, UniProt Q9H3R0); experiment: inhibition of JMJD2C H3K9me3 demethylation – biochemical, DELFIA europium, cherry-picked samples, dose response (AID 488835); assay type: functional
T3 sequence (Q9H3R0 whole entry): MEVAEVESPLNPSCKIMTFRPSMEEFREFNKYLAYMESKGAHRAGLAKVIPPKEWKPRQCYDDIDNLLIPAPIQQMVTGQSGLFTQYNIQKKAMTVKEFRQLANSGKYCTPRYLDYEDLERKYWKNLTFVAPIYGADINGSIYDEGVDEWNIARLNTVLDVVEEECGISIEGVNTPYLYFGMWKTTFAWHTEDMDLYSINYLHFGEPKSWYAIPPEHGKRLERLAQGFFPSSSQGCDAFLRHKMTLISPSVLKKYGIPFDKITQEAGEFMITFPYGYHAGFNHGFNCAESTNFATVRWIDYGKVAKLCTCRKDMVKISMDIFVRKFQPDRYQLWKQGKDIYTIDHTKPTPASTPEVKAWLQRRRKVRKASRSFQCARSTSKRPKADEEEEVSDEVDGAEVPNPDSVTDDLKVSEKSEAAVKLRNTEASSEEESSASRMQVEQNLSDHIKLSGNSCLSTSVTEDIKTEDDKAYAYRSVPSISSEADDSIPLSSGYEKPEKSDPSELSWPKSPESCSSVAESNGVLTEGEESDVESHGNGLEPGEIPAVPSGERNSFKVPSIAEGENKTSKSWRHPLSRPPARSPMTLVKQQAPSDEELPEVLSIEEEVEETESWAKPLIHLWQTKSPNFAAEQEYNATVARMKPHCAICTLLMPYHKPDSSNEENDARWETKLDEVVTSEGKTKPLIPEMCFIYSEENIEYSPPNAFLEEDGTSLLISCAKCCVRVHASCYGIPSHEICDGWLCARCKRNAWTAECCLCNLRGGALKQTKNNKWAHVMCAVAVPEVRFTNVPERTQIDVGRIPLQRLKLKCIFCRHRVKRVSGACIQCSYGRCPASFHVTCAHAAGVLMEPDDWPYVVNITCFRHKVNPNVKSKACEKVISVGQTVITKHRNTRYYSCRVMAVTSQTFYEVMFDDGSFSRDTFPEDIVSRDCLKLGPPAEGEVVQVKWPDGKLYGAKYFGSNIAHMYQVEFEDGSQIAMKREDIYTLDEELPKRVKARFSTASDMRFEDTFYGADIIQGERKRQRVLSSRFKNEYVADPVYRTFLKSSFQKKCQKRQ

[8] = molecular target: T4, X-box-binding protein 1 (Homo sapiens, UniProt P17861); assay type: functional, Cricetulus griseus;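 further: confirmatory dose-response counter-screen serving a CHOP assay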
T4 sequence (P17861 whole entry): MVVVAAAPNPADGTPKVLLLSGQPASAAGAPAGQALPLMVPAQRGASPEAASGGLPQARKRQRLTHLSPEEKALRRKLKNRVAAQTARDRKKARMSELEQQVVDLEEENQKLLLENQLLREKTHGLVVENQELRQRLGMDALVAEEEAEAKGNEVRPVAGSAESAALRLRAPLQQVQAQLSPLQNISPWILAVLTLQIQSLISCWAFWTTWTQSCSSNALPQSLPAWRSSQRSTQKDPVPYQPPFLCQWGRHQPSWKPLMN

[9] = viability of PTEN-deleted HCT116 cells – cell-based, HCT116 PTEN knockout, dose response (AID 1047); assay type: functional;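 further: HCT116 colon tumor cells with PTEN knocked out; cells exposed to compound for 60 hours before readout; potency for loss of cell viability measured by luminescence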
[10] = viability of HCT116 lacking mutant beta-catenin – cell-based, human colon tumor, dose response (AID 1045); assay type: functional;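 further: HCT116 colon tumor cells with beta catenin knocked out; cells exposed to compound for 60 hours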
[11] = molecular target: T5, Microphthalmia-associated transcription factor (Homo sapiens, UniProt O75030); experiment: reducers of TRPM1 reporter luminescence, concentration series – cell-based, SK-MEL-5, cherry-picked, set 3, MITF inhibitor project, dose response (AID 493073); assay type: functional;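 further: SK-MEL-5 melanoma cells with luciferase driven by the MITF target TRPM1 promoter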
T5 sequence (O75030 whole entry): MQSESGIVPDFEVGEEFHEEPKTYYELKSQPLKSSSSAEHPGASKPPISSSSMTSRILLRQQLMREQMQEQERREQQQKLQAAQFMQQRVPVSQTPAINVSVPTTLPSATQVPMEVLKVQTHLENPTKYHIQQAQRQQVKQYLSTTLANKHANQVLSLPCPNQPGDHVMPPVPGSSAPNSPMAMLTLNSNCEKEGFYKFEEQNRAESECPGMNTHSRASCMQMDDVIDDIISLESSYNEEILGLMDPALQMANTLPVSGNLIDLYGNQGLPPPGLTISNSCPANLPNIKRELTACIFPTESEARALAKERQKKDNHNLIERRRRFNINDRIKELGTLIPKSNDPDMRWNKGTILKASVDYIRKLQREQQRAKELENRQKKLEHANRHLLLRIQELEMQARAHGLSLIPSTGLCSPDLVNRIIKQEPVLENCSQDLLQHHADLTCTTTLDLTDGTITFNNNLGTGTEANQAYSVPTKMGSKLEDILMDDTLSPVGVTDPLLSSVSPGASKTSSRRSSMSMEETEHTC

[12] = Luminescence Cell-Based Dose Retest to Confirm Inhibitors of Cancer Stem Cells. [Related pubchem assays (depositor defined):AID2717, AID2721]; assay type: functional; details: Homo sapiens
[13] = loss of viability in HepG2 cells – cell-based, CellTiter-Glo, cherry-picked, cytotoxicity control for Shn3 inhibitor project, dose response (AID 624134); assay type: functional
[14] = non-specific 3'UTR reporter inhibition in Clone20-Shn3RL – cell-based, Renilla luciferase, cherry-picked, counter-screen for Shn3 inhibitor project, dose response (AID 624133); assay type: functional
[15] = reduction of Shn3 3'UTR-driven luciferase in osteoblasts – cell-based, Clone20 osteoblasts, firefly luciferase, cherry-picked, dose response (AID 624132); assay type: functional;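 further: firefly luciferase luminescence from reporter carrying the Shn3 3'UTR in osteoblasts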

Intestinal-type alkaline phosphatase, sequence (P09923 whole entry): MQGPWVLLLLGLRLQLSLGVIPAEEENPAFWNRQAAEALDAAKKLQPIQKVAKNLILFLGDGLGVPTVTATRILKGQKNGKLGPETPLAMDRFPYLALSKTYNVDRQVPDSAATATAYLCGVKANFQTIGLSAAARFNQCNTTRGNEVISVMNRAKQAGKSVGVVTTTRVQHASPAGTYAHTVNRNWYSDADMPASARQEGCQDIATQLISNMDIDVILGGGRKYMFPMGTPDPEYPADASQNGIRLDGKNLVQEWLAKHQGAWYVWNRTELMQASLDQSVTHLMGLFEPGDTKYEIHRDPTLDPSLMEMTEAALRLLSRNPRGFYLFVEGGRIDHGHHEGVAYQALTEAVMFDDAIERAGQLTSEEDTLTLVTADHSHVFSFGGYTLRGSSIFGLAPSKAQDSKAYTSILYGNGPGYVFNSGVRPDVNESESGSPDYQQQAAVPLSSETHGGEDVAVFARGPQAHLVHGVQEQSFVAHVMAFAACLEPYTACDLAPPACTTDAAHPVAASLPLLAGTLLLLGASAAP

Cc1ccc(O)c(N/C=C/C(=O)c2ccc(F)cc2)c1
EC50 [1]: > 100 µM (inactive)

O=C1c2ccccc2C(=O)N1c1nnc(CCc2ccccc2)[nH]1
IC50 [2]: 66.5 µM (active)
IC50 [3]: > 100 µM (not active)

O=C(C1CCCN(Cc2ccccc2F)C1)N1CCc2ccccc2C1 (stereo unspecified)
EC50 [4]: > 350 µM (not active)
EC50 [5]: > 350 µM (not active)
EC50 [6]: 0.299 µM (active)

Cc1cccc(N2C(=O)NC(=O)/C(=C\c3cnc(-c4ccccc4)nc3)C2=O)c1
AC50 [7]: 15.2 µM (active)

Cc1ccc(C(C(=O)NC2CCCCC2)N(C(=O)Cc2c[nH]c3ccccc23)c2ccccc2C)o1 (stereo unspecified)
Absolute IC50 (XBP1) [8]: 10 µM

CC(=O)OCCCNc1cc(Sc2ccc(Cl)cc2)c2nonc2c1[N+](=O)[O-]
EC50 [9]: 13.1 µM (active)
EC50 [10]: 11.3 µM (active)
AC50 [11]: 10.9 µM (active)
AC50 [12]: 4.57 µM (active)
AC50 [13]: 43.7 µM (active)
AC50 [14]: 7.64 µM (active)
Absolute IC50 (XBP1) [8]: 10 µM
AC50 [15]: 1.14 µM (active)
